In ChEMBL document CHEMBL2150981, “Discovery and optimization of benzotriazine di-N-oxides targeting replicating and nonreplicating Mycobacterium tuberculosis” (J Med Chem, 2012):
In brackets after ≈: the same amount, converted by molar mass.

How the values were obtained:
[1] = system: Mycobacterium tuberculosis; assay: Antitubercular activity against Mycobacterium tuberculosis H37Rv incubated for 10 days in anaerobic condition followed by 48 hrs incubation in aerobic condition by LORA assay; assay type: functional
[2] = Selectivity index, ratio of CC50 for Vero cells to MIC90 for Mycobacterium tuberculosis H37Rv isolate SRI; assay type: functional
[3] = system: Mycobacterium tuberculosis; assay: Antitubercular activity against Mycobacterium tuberculosis H37Rv isolate ITR after 7 days by luminescence spectrometry; assay type: functional; conditions: 168 h
Vero = assay: Cytotoxicity against african green monkey Vero cells after 72 hrs by CellTiterGlo assay; conditions: chlorocebus sabaeus, vero, 72 h
[4] = system: Mycobacterium tuberculosis; assay: Antitubercular activity against Mycobacterium tuberculosis H37Rv isolate SRI after 5 days by resazurin-based microplate assay; assay type: functional; conditions: 120 h

Row | Compound | MIC90 [1] | Selectivity Index [2] | MIC90 [3] | CC50 (Vero) | MIC90 [4]
1 | [O-][n+]1nc(NC2CCCCC2)[n+]([O-])c2ccc(Cl)cc21 | 0.63 µg/mL (≈ 2.14 µM) | 4.2 | 0.94 µg/mL (≈ 3.19 µM) | 2.6 µg/mL (≈ 8.82 µM) | 0.62 µg/mL (≈ 2.1 µM)
2 | [O-][n+]1nc(N[C@@H]2C[C@H]3CC[C@@H]2C3)[n+]([O-])c2ccc(Cl)cc21 | 0.23 µg/mL (≈ 0.75 µM) | 7.3 | 0.22 µg/mL (≈ 0.717 µM) | 1.1 µg/mL (≈ 3.59 µM) | 0.15 µg/mL (≈ 0.489 µM)
3 | CCNc1n[n+]([O-])c2cc(Br)ccc2[n+]1[O-] | 0.46 µg/mL (≈ 1.61 µM) | 6.7 | 0.49 µg/mL (≈ 1.72 µM) | 4.2 µg/mL (≈ 14.7 µM) | 0.62 µg/mL (≈ 2.17 µM)
4 | [O-][n+]1nc(NC2CCC2)[n+]([O-])c2ccc(Br)cc21 | 0.41 µg/mL (≈ 1.32 µM) | 24 | 0.46 µg/mL (≈ 1.48 µM) | 3.8 µg/mL (≈ 12.2 µM) | 0.15 µg/mL (≈ 0.482 µM)
5 | [O-][n+]1nc(NC2CCCC2)[n+]([O-])c2ccc(Br)cc21 | 0.46 µg/mL (≈ 1.41 µM) | 110 | 0.35 µg/mL (≈ 1.08 µM) | 18 µg/mL (≈ 55.4 µM) | 0.15 µg/mL (≈ 0.461 µM)
6 | [O-][n+]1nc(N[C@@H]2C[C@H]3CC[C@@H]2C3)[n+]([O-])c2ccc(Br)cc21 | 0.41 µg/mL (≈ 1.17 µM) | 2.6 | 0.36 µg/mL (≈ 1.03 µM) | 0.8 µg/mL (≈ 2.28 µM) | 0.31 µg/mL (≈ 0.883 µM)
7 | CCNc1n[n+]([O-])c2cc(OC)ccc2[n+]1[O-] | 16 µg/mL (≈ 67.7 µM) | 6.3 | 15 µg/mL (≈ 63.5 µM) | – | 2.5 µg/mL (≈ 10.6 µM)
8 | COc1ccc2c(c1)[n+]([O-])nc(NC1CCC1)[n+]2[O-] | 0.9 µg/mL (≈ 3.43 µM) | 16 | 0.96 µg/mL (≈ 3.66 µM) | 9.8 µg/mL (≈ 37.4 µM) | 0.62 µg/mL (≈ 2.36 µM)
9 | COc1ccc2c(c1)[n+]([O-])nc(N[C@@H]1C[C@H]3CC[C@@H]1C3)[n+]2[O-] | 1.6 µg/mL (≈ 5.29 µM) | >80 | 0.97 µg/mL (≈ 3.21 µM) | > 50 µg/mL | 0.62 µg/mL (≈ 2.05 µM)
10 | Cc1cccc2c1[n+]([O-])c(NC1CCC1)n[n+]2[O-] | 0.43 µg/mL (≈ 1.75 µM) | 70 | 0.47 µg/mL (≈ 1.91 µM) | 22 µg/mL (≈ 89.3 µM) | 0.31 µg/mL (≈ 1.26 µM)
11 | Cc1cccc2c1[n+]([O-])c(NC1CCCC1)n[n+]2[O-] | 0.27 µg/mL (≈ 1.04 µM) | 12 | 0.43 µg/mL (≈ 1.65 µM) | 3.7 µg/mL (≈ 14.2 µM) | 0.31 µg/mL (≈ 1.19 µM)
12 | [O-][n+]1nc(N[C@@H]2C[C@H]3CC[C@@H]2C3)[n+]([O-])c2cc3c(cc21)CCC3 | 0.36 µg/mL (≈ 1.15 µM) | >41 | 0.93 µg/mL (≈ 2.98 µM) | > 50 µg/mL | 1.2 µg/mL (≈ 3.84 µM)
13 | COc1cc2c(cc1C)[n+]([O-])nc(NC1CCC1)[n+]2[O-] | 2.9 µg/mL (≈ 10.5 µM) | >20 | 5.1 µg/mL (≈ 18.5 µM) | > 50 µg/mL | 2.5 µg/mL (≈ 9.05 µM)
14 | COc1cc2c(cc1C)[n+]([O-])nc(N[C@@H]1C[C@H]3CC[C@@H]1C3)[n+]2[O-] | 3.5 µg/mL (≈ 11.1 µM) | >10 | 5.6 µg/mL (≈ 17.7 µM) | > 50 µg/mL | 5 µg/mL (≈ 15.8 µM)
15 | O=S1(=O)CCN(c2n[n+]([O-])c3cc4c(cc3[n+]2[O-])CCC4)CC1 | 30 µg/mL (≈ 89.2 µM) | 3.4 | 15 µg/mL (≈ 44.6 µM) | 17 µg/mL (≈ 50.5 µM) | 5 µg/mL (≈ 14.9 µM)
16 | CS(=O)(=O)N1CCN(c2n[n+]([O-])c3cc4c(cc3[n+]2[O-])CCC4)CC1 | 15 µg/mL (≈ 41 µM) | >10 | 13 µg/mL (≈ 35.6 µM) | > 50 µg/mL | 5 µg/mL (≈ 13.7 µM)
17 | [O-][n+]1nc(N2CCOCC2)[n+]([O-])c2ccccc21 | 19 µg/mL (≈ 76.5 µM) | 2.2 | 3.7 µg/mL (≈ 14.9 µM) | 5.4 µg/mL (≈ 21.8 µM) | 2.5 µg/mL (≈ 10.1 µM)
18 | CCc1n[n+]([O-])c2ccccc2[n+]1[O-] | 0.97 µg/mL (≈ 5.07 µM) | 7.6 | 3.7 µg/mL (≈ 19.4 µM) | 38 µg/mL (≈ 199 µM) | 5 µg/mL (≈ 26.2 µM)
19 | C[C@@H](Nc1n[n+]([O-])c2ccccc2[n+]1[O-])C1CCCCC1 | 0.36 µg/mL (≈ 1.25 µM) | 7.1 | 0.92 µg/mL (≈ 3.19 µM) | 8.9 µg/mL (≈ 30.9 µM) | 1.2 µg/mL (≈ 4.16 µM)
20 | CCN(CC)c1n[n+]([O-])c2ccccc2[n+]1[O-] | 1.3 µg/mL (≈ 5.55 µM) | 40 | 0.46 µg/mL (≈ 1.96 µM) | 12 µg/mL (≈ 51.2 µM) | 0.31 µg/mL (≈ 1.32 µM)
21 | [O-][n+]1nc(NC2CCCCC2)[n+]([O-])c2ccccc21 | 0.75 µg/mL (≈ 2.88 µM) | 3.6 | 3.8 µg/mL (≈ 14.6 µM) | 8.9 µg/mL (≈ 34.2 µM) | 2.5 µg/mL (≈ 9.6 µM)
22 | O=C(Cn1ccnc1[N+](=O)[O-])NCCO [ETANIDAZOLE] | 26 µg/mL (≈ 121 µM) | – | > 32 µg/mL | > 16 µg/mL | > 10 µg/mL
23 | NNC(=O)c1ccncc1 [ISONIAZID] | > 20 µg/mL | >830 | 0.091 µg/mL (≈ 0.664 µM) | > 50 µg/mL | 0.06 µg/mL (≈ 0.438 µM)
24 | Cc1ncc([N+](=O)[O-])n1CCO [METRONIDAZOLE] | 11 µg/mL (≈ 64.3 µM) | – | > 32 µg/mL | > 16 µg/mL | > 10 µg/mL
